From patent publication EP0500426A1, “2,6-Dimethyl-4-(4'-hydroxy-3',5'-di-t-butylphenyl)-1,4-dihydropyridine derivatives, process for their preparation and their use as free radical scavengers” (Instituto de Investigacion Y Desarrollo Quimico-Biologico …, priority 1991, dated 1992)
pIC50: −log10 of the molar value.

Key:
[1] = tested on: membrane hépatique du rat; assay: Free radical scavenging in rat liver membranes: lipid peroxidation induced by Fe++/ascorbic acid, thiobarbituric acid-reactive substances; assay type: biochemical; settings: 45 minutes at 37°C, substances reacting with ATB, read-out: CI50 (the source's name)
Experimental: Les composés de la présente invention ont fait l'objet d'un essai de contrôle de leur aptitude à capter les radicaux libres engendrés par la membrane hépatique du rat stimulée par du Fe++/acide ascorbique (système connu pour induire une formation de radicaux libres).
1.- Activité de captage des radicaux libres dans la membrane hépatique du rat.
On a préparé des homogènats de foie de rat (1/10 p/v) dans du Ringer-Tris (50mM)-saccharose ([…]) de pH 7,4, après sacrifice de rats Wistar au moyen de CO2. On a découpé les foies en petits morceaux (1 à 2 mm) et on les a homogénéisés à 0°C dans un homogénéisateur Polytron. On a centrifugé les homogénats à 1000 x g pendant 10 minutes à 4°C et rejeté le culot. On a centrifugé le surnageant à 10 000 x g pendant 20 minutes et recueilli le culot, puis on l'a remis en suspension, dans le rapport 1/10, dans du Ringer-Tris (50 mM). On a utilisé des échantillons de la préparation immédiatement et on en a conservé à -20°C. […] Après 45 minutes à 37°C, on a ajouté 1 ml d'une solution contenant 0,5% d'acide thiobarbiturique (ATB) dans de l'acide trichloroacétique (ATC) à 20% dans chaque tube et après 15 minutes d'incubation à 95°C, on a déterminé par spectrophotométrie les substances réagissant avec l' A TB. On a réalisé pour toutes les expériences des témoins appropriés exempts du médicament.

neutrophiles humains = assay: Free radical production by FMLPA-stimulated human neutrophils (cytochrome C reduction); assay type: cell-based; settings: Neutrophil, reduced cytochrome C at 550 nm, read-out: CI50 (the source's name)
Source text: (§1) Les composés de la présente invention ont fait l'objet d'un essai de contrôle de leur aptitude à capter les radicaux libres engendrés par la membrane hépatique du rat stimulée par du Fe++/acide ascorbique (système connu pour induire une formation de radicaux libres). Les composés les plus actifs ont fait ensuite l'objet d'essais de contrôle de leur aptitude à inhiber la formation des radicaux libres par les neutrophiles humains stimulés par la N-formyl-L-méthionyl-L-leucyl-L-phénylalanine et à protéger le tissu hépatique, entretenu en culture, contre les lésions par ischémie/reperfusion.
2.- Dosage des radicaux libres dans les polymorphonucléaires.
On a isolé des neutrophiles humains chez des donneurs volontaires bien portants par centrifugation sur gradient dans du Ficol Hypaque (Pharmacia). On a mélangé 100 µl de suspension de cellules (nombre final 500 000 cellules) avec 700 µl de solution physiologique tamponnée au phosphate et 50 µl des composés expérimentaux en solution dans du DMSO. On a utilisé comme témoin positif 25 µl d'une solution à 1 mg par ml de superoxyde dismutase dans du DMSO (à savoir 25 µg de SOD). On a préincubé les tubes à 37°C pendant 10 minutes sous agitation lente.
On a stimulé les neutrophiles par addition de 100 µl de cytochrome C type VI (1 mM) (Sigma) dans de la solution physiologique tamponnée au phosphate, de 50 µl de N-formyl-L-méthionyl-L-leucyl-L-phénylalanine (FMPLA) (10 µM) (Sigma F 3506) et par incubation pendant 5 minutes à 37°C. Après refroidissement à 0°C pour arrêter la réaction, on a centrifugé les tubes à 8000 xg et on a déterminé par spectrophotométrie à 550 nm le cytochrome C réduit, en utilisant des tubes contenant du SOD comme témoins.

tissu hépatique = assay: Ischemia/reperfusion in short-term organ culture of rat liver, malonaldehyde by thiobarbituric acid reaction; assay type: cell-based, rats Wistar; settings: 1 h, concentration inhibiting malonaldehyde production by 50%, 60 minutes ischemic anoxia, 60 minutes reoxygenation, read-out: CI50 (the source's name)
Source text: as §1
3.- Ischémie/reperfusion dans une culture d'organe à court terme.
Pour ces études, on a prélevé des échantillons de tissu dans des groupes de 10 rats Wistar mâles anesthésiés au pentobarbital sodique (60 mg par kg, i.p.). On a isolé les foies et on les a divisés en cinq échantillons d'environ 0,4 g qu'on a pesés et transférés dans des fioles d'Erlenmeyer de 50 ml bouchées contenant de la solution de Tris-Ringer saturée d'argon (anoxique).
On a purgé à l'argon les fioles d'Erlenmeyer de 50 ml contenant les échantillons du tissu et 3,9 ml de tampon de Tris-Ringer traité à l'argon, on les a rebouchées et on les a conservées au bain-marie à 37°C sans agitation pendant 50 minutes pour provoquer l'ischémie. La subdivision du tissu et l'agitation ont été évitées à ce stade pour réduire au minimum la diffusion des métabolites depuis le tissu jusque dans le milieu, qui n'aurait pu se faire au cours d'une ischémie in vivo.
Division du tissu et addition du médicament.
Après 50 minutes d'ischémie, on a divisé les tissus avec des ciseaux d'ophtalmologie en fragments d'environ 1 mm de côté. Du fait que l'argon est plus dense que l'air, son déplacement hors de la fiole et son remplacement par l'oxygène sont restés minimaux pendant le découpage et l'addition ultérieure du médicament. Ensuite, on a ajouté 0,1 ml de tampon de Tris-Ringer contenant l'un des composés à évaluer ou de l'hydroxy- toluène butylé (HTB), pour arriver à la concentration finale souhaitée; on a sélectionné l'hydroxytoluène butylé du fait que c'est un antioxydant classique qui gêne la propagation en chaîne des radicaux. On a procédé à ces additions avec rapidité pour éviter d'introduire de l'oxygène. On a rebouché les fioles et on les a secouées modérément pour mélanger le tissu avec le médicament, puis on les a remises au bain-marie pendant 10 minutes pour la mise a l'équilibre avant la réoxygénation.
Après 60 minutes d'anoxie ischémique, on a réoxygéné les fioles par barbotage vif d'oxygène gazeux à 100% dans les échantillons pendant 1 minute et par purge de la phase gazeuse avec de l'oxygène (de l'argon remplaçant l'oxygène à ce stade dans les expériences témoins d'ischémie sans réoxygénation). […]

canaux calciques = settings: see Spanish patent n°531.033; cited from earlier work
radicaux libres = assay: Free radical scavenger activity (test not specified)

| SMILES | pIC50 [1] | also measured |
| --- | --- | --- |
| Cc1c(C)c2c(c(C)c1O)CCC(C)(CCCC(C)CCCC(C)CCCC(C)C)O2 (stereo not drawn) [α-Tocophérol, reference compound] | 4.82 | – |
| CCOC(=O)C1=C(C)NC(C)=C(C(=O)OCC(C)C)C1c1cc(C(C)(C)C)c(O)c(C(C)(C)C)c1 (centres unmarked) [Exemple 10, 2,6-diméthyl-4-(4'-hydroxy-3',5'-di-t-butylphényl)-1,4-dihydropyridine-3,5-dicarboxylate d'éthyle et d'isobutyle] | 6.43 | pIC50 (neutrophiles humains): 4.98; pIC50 (tissu hépatique): 6.70 |
| CCOC(=O)C1=C(C)NC(C)=C(C(=O)OC)C1c1cc(C(C)(C)C)c(O)c(C(C)(C)C)c1 (centres unmarked) [Exemple 1, 2,6-Diméthyl-4-(4'-hydroxy-3',5'-di-t-butylphényl)-1,4-dihydropyridine-3,5-dicarboxylatede méthyle et d'éthyle] | 6.11 | pIC50 (neutrophiles humains): 4.96; pIC50 (tissu hépatique): 6.77 |
| CC1=C(C(=O)OCC(C)C)C(c2cc(C(C)(C)C)c(O)c(C(C)(C)C)c2)C(C(=O)OCC(C)C)=C(C)N1 [Exemple 11, 2,6-diméthyl-4-(4'-hydroxy-3',5'-di-t-butylphényl)-1,4-dihydropyridine-3,5-dicarboxylatede diisobutyle] | 6.00 | – |
| CCOC(=O)C1=C(C)NC(C)=C(C(=O)OCC2COC(C)(C)O2)C1c1cc(C(C)(C)C)c(O)c(C(C)(C)C)c1 (centres unmarked) [Exemple 4, 2,6-diméthyl-4-(4'-hydroxy-3',5'-di-t-butylphényl)-1,4-dihydropyridine-3,5-dicarboxylate d'éthyle etde (2,2-diméthyl-1,3-dioxolan-4-yl)méthyle] | 5.90 | – |
| Cc1cc(C(C)(C)C)c(O)c(C(C)(C)C)c1 [HTB, hydroxytoluène butylé, reference compound] | 5.82 | pIC50 (neutrophiles humains): 4.70; pIC50 (tissu hépatique): 5.76 |
| CCOC(=O)C1=C(C)NC(C)=C(C(=O)OCC(O)CO)C1c1cc(C(C)(C)C)c(O)c(C(C)(C)C)c1 (centres unmarked) [Exemple 5, 2,6-diméthyl-4-(4'-hydroxy-3',5'-di-t-butyl-phényl)-1,4-dihydropyridine-3,5-dicarboxylate d'éthyle etde 2,3-dihydroxypropyle] | 4.30 | – |
| CCOC(=O)C1=C(C)NC(C)=C(C(=O)OC(C)C)C1c1cc(C(C)(C)C)c(O)c(C(C)(C)C)c1 (centres unmarked) [Exemple 2, 2,6-diméthyl-4-(4'-hydroxy-3',5'-di-t-butylphényl)-1,4-dihydropyridine-3,5-dicarboxylate d'éthyle et d'isopropyle] | 6.54 | pIC50 (neutrophiles humains): 4.99; pIC50 (tissu hépatique): 6.70 |
| CCOC(=O)C1=C(C)NC(C)=C(C(=O)OCCNC)C1c1cc(C(C)(C)C)c(O)c(C(C)(C)C)c1 (centres unmarked) [Exemple 7, chlorhydratede 2,6-diméthyl-4-(4'-hydroxy-3',5'-di-t-butylphényl)-1,4-dihydropyridine-3,5-dicarboxylate d'éthyle etde 2-(méthylamino)éthyle] | 5.60 | – |
| CCOC(=O)C1=C(C)NC(C)=C(C(=O)OCCN(C)Cc2ccccc2)C1c1cc(C(C)(C)C)c(O)c(C(C)(C)C)c1 (centres unmarked) [Exemple 6, chlorhydratede 2,6-diméthyl-4-(4'-hydroxy-3',5'-di-t-butylphényl)-1,4-dihydropyridine-3,5-dicarboxylate d'éthyle etde 2-(N-méthyl-N-benzylamino)éthyle] | 4.70 | – |
| CCOC(=O)C1=C(C)NC(C)=C(C(=O)OCc2ccccc2)C1c1cc(C(C)(C)C)c(O)c(C(C)(C)C)c1 (centres unmarked) [Exemple 8, 2,6-diméthyl-4-(4'-hydroxy-3',5'-di-t-butylphényl)-1,4-dihydropyridine-3,5-dicarboxylate d'éthyle etde benzyle] | 6.00 | – |
| CCOC(=O)C1=C(C)NC(C)=C(C(=O)O)C1c1cc(C(C)(C)C)c(O)c(C(C)(C)C)c1 (centres unmarked) [Exemple 9, 2,6-diméthyl-4-(4'-hydroxy-3',5'-di-t-butylphényl)-5-carbéthoxy-3-carboxy-1,4-dihydropyridine] | 5.60 | – |
| CCOC(=O)C1=C(C)NC(C)=C(C(=O)OC)C1c1cc(OC)c(O)c(OC)c1 (centres unmarked) | – | activité de blocage des canaux calciques (canaux calciques): pratiquement exempt; activité comme capteur de radicaux libres (radicaux libres): intéressante activité |
| COC(=O)C1=C(C)NC(C)=C(C(=O)OC)C1c1cc(C(C)(C)C)c(O)c(C(C)(C)C)c1 [Exemple 3, 2,6-Diméthyl-4-(4'-hydroxy-3',5'-di-t-butylphényl)-1,4-dihydropyridine-3,5-dicarboxylatede diméthyle] | 5.90 | – |
